Consider five compounds from patent US6949648B2, “Condensed pyrazole derivatives, process for producing the same and use thereof” (Takeda Pharmaceutical Company Limited, priority 2000, dated 2005).

As a reminder, the melting point is the temperature, or range, at which the solid turns liquid. Broadly, the IC50 is the concentration needed to halve the response being measured.

The subject of data set [1] is acetic acid induced rising and stretching. In words: Analgesic activity, acetic acid rising method. Type of data set: in vivo, ICR-mice. Particulars: po, 20 min; 10 mg/kg orally, 30 minutes before 0.6% acetic acid i.p.; number of rising and stretching in 20 minutes; read-out: Repression rate (%) Dosage 10 mg/kg. Put shortly: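 Male ICR mice (5 weeks, n=10/group) dosed orally; 30 min later injected i.p. with 0.6% acetic acid. Rising and stretching counted over 20 min; repression rate (%) from group mean counts versus controls.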

Data set [2] concerns mucosa of small intestine. Briefly: Disorder of mucosa of small intestine. Type of data set: in vivo, SD rats. Particulars: 300 mg/kg orally, freely fed rats, 6 hours after dosing. Here is the method:
Disorder of Mucosa of Small Intestine Male SD origin male-rats (7 weeks old, CLEA Japan) were used. To the rats freely fed, samples were administered orally (5 mL/kg, b.w.). After 5.5 hours from the administration, Evan's Blue (0.5% Evan's Blue/saline) was injected (1 mL/rat) intravenously under no anesthesia. After 30 minutes from the shot, the intestine was removed by celiotomy and the area thereof facing mesentery was cut open. After removal of intestinal content, the spots in the intestine dyed by Evan's Blue were measured under a stereomicroscope, and the total length (mm) of the spots was determined by a counter and recorded.

For the next data set, the system named is yeast-induced pyrexia. Briefly: Antipyretic activity in yeast-induced pyrexia. Type of data set: in vivo, SD rats. Conditions: 10 mg/kg orally; maximum difference in body temperature vs control over 6 hours. The essentials:
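Male SD rats, 7 weeks old (n=6), febrile 18 h after s.c. 15% yeast in saline (10 mL/kg), fasted; compound given orally at 5 mL/kg, vehicle to controls. Rectal temperature by thermistor hourly for 6 h; Δ (° C.) is maximum temperature difference versus control.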

The target in another data set is T1, human COX-1 (Homo sapiens, UniProt P23219).
T1 construct: made in house; host or cells: Sf-21 insect cells (recombinant baculovirus BAC-COX1, pFASTBAC1); microsome fraction
In words: Determination of COX-1 inhibitory activity (microsome fraction, chemiluminescence). Type of data set: biochemical. Conditions: microsome fraction 40 μg, arachidonic acid, 37° C. 25 minutes preincubation; read-out: Repression rate IC50 (μM) COX-1. Here is the method:
A 1.8 kb DNA fragment containing human COX-1 cDNA (FASEB J., vol. 5 (9), p. 2304-2312 (1991)) prepared by the PCR method was inserted into plasmid pFASTBAC1 (CIBCOBRL) to obtain a plasmid pFBCOX1.
Using the plasmid pFBCOX1 and BAC-TO-BAC Baculovirus Expression System (GIBCOBRL), a virus stock BAC-COX1 of the recombinant baculovirus was prepared.
Sf-21 cells were inoculated in 125 mL of Sf-900 II SFM medium (GIBCOBRL) at a concentration of 1×10^6 cells/mL, and the medium was incubated at 27° C. for 24 hours. 0.75 mL of the virus stock BAC-COX1 of the recombinant baculovirus was added thereto, and the mixture was incubated further for 72 hours. The cells were separated from the medium by centrifugation (3000 rpm, 10 min), and washed with PBS twice. The cells were suspended in 10 mL of a Lysis buffer (0.1M Tris-HCl (pH 7.4), 5 mM EDTA), and were treated with a homogenizer (POLYTRON) three times at 20000 rpm for 20 seconds so that the cells were crushed. The supernatant obtained after centrifugation (2000 rpm, 10 minutes) was further centrifuged (40000 rpm, 45 minutes) to give a precipitate, which was resuspended in a Lysis buffer (0.1M Tris-HCl (pH 7.4), 5 mM EDTA), and the suspension was stored at −80° C.
Determination of COX-1 and COX-2 Inhibitory Activities
To a mixture of 20 μL of a reaction buffer previously concentrated 10 times (1M Tris-HCl (pH8.0), 50 mM EDTA, 1.0% Tween 20, 50 mM luminol, 100 μM hematin), 20 μL of the microsome fractions (COX-1: 40 μg, COX-2: 20 μg), and 55 μL of distilled water, a sample compound dissolved in DMF (5 μL) was added, and the mixture was left at 37° C. for 25 minutes. The reaction was started by the addition of 20 μM arachidonic acid (100 μL), and chemiluminescence amount during the 10-second period after the addition of arachidonic acid was determined by the use of Lumistar (BMG Lab technologies, GmbH). The inhibition rate was calculated, regarding that the enzyme activity when DMF ([…]) was added was 100%, and the enzyme activity when 4 mM flurbiprofen (5 μL) was added was 0%.

For data set [3], the system named is carrageenin edema of right hind limb plantar. In words: Anti-inflammatory activity, carrageenin edema method. Type of data set: in vivo, SD-rats. Particulars: po. Put shortly: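 Male 6-week-old SD rats (n=6/group) dosed orally with sample, then 5 mL water; controls got solvent only. One hour later, 0.05 mL 1% carrageenin was injected subcutaneously into the right hind paw. Paw volume measured before and 2 and 3 h after injection; % inhibition versus control calculated.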

Where [4] appears, read: 10 mg/kg orally, 2 hr after carrageenin injection, read-out: Repression rate (%) Dosage 10 mg/kg 2 hr later.
Setting [5] is: 10 mg/kg orally, 3 hr after carrageenin injection, read-out: Repression rate (%) Dosage 10 mg/kg 3 hr later.

Like-named read-outs stand apart in the source and are kept apart here. Marks after values point to notes of the source that are not given here.

T1 sequence (P23219 24-599): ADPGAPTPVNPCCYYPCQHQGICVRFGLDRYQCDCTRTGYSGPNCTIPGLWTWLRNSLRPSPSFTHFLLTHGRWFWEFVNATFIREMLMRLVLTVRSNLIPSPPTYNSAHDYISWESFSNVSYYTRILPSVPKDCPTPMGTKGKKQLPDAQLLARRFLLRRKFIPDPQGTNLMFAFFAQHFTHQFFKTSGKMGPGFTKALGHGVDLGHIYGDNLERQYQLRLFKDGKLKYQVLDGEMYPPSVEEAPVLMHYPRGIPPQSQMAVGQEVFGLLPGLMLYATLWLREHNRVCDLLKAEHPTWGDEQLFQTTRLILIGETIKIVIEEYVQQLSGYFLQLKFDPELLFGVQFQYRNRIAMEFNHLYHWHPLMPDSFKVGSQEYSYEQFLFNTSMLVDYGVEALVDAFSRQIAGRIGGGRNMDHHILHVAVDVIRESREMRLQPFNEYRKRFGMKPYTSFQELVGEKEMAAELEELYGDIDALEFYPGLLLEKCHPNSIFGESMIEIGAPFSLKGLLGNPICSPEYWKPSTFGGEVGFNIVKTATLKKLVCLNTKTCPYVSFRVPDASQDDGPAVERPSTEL

For the compound `O=c1c2ccccc2[nH]c2c1cnn2-c1ccccn1` [Example 2-159, 1-(2-Pyridinyl)-1,9-dihydro-4H-pyrazolo[3,4-b]quinolin-4-one], the melting point fell in the range of 240 to 242 °C. Moreover, the inhibition in vivo at 10 mg/kg in data set [1] stood at 69%. Also, in data set [2], the “Total length of dyed spots (mm)” value is 0 (300 mg/kg) mm. In addition, the “Δ (° C.) Dosage 10 mg/kg” value in the data set on yeast-induced pyrexia was 1.8** ° C. The 50% inhibitory concentration (IC50) at human COX-1 was 2.66 µM. Further, in data set [3] (setting [4]), the inhibition in vivo at 10 mg/kg stood at 50%. Moreover, the inhibition in vivo at 10 mg/kg in data set [3] (setting [5]) amounted to 39%.
Consider `Cc1nn(-c2ccccn2)c2[nH]c3cccc(F)c3c(=O)c12.Cl` [Example 2-79, 5-Fluoro-3-methyl-1-(2-pyridinyl)-1,9-dihydro-4H-pyrazolo[3,4-b]quinolin-4-one hydrochloride], for which the melting point is more than 380 °C. Moreover, in data set [1], the inhibition in vivo at 10 mg/kg was determined as 38%. Besides, the “Total length of dyed spots (mm)” value in data set [2] is listed as 0 (300 mg/kg) mm. For the same compound, the “Δ (° C.) Dosage 10 mg/kg” value with yeast-induced pyrexia is given as 1.4** ° C. The concentration for half-maximal inhibition (IC50) on human COX-1 was 7.8 µM. Besides, in data set [3] (2 h, read-out: Repression rate (%) Dosage 10 mg/kg 2 hr later), the inhibition in vivo at 10 mg/kg stood at 37%. The inhibition in vivo at 10 mg/kg in data set [3] (3 h, read-out: Repression rate (%) Dosage 10 mg/kg 3 hr later) is 33%.
With `CCCOc1c2ccccc2nc2c1c(C)nn2-c1ccccn1` [Example 2-17, 3-Methyl-4-propoxy-1-(2-pyridinyl)-1H-pyrazolo[3,4-b]quinoline], the results for the inhibition in vivo at 10 mg/kg in data set [1], in data set [3] (setting [4]) and in data set [3] (setting [5]) were 49%, 45% and 37%, respectively. For the same compound, the “Total length of dyed spots (mm)” value in data set [2] is listed as 0 (300 mg/kg) mm. In the data set with yeast-induced pyrexia, the “Δ (° C.) Dosage 10 mg/kg” value was 1.5** ° C. Moreover, the half-maximal inhibitory concentration (IC50) at human COX-1 was 7.28 µM.
`CCCNc1c2ccccc2nc2c1c(C)nn2-c1ccccn1` [Example 2-6, N-[3-Methyl-1-(2-pyridinyl)-1H-pyrazolo[3,4-b]quinolin-4-yl]-N-propylamine] came in with a melting point of 121 to 122 °C. For the same compound, in data set [1], the inhibition in vivo at 10 mg/kg worked out at 57%. Further, the “Δ (° C.) Dosage 10 mg/kg” value in the data set with yeast-induced pyrexia was 0.8** ° C. Besides, the IC50 at human COX-1 came out at 21.7 µM. Besides, the inhibition in vivo at 10 mg/kg in data set [3] (setting [4]) amounted to 43%. The inhibition in vivo at 10 mg/kg in data set [3] (setting [5]) is 35%.
Consider `Cc1nn(-c2ccccn2)c2nc3ccccc3c(OC3CCCC3)c12` [Example 2-21, 4-Cyclopentyloxy-3-methyl-1-(2-pyridinyl)-1H-pyrazolo[3,4-b]quinoline], for which the figures for the inhibition in vivo at 10 mg/kg in data set [1], in data set [3] (setting [4]) and in data set [3] (setting [5]) were 56%, 52% and 45%, respectively. For the same compound, the “Δ (° C.) Dosage 10 mg/kg” value in the data set with yeast-induced pyrexia is 1.8** ° C. Moreover, on human COX-1, the IC50 was found to be 4.21 µM.
